The values below come from ChEMBL document CHEMBL1201862, “PubChem BioAssay data set” (2004).

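In this assay, cells in 96-well plates receive the compound at five concentrations for 48 hours. Endpoints are linearly interpolated between the surrounding concentrations. GI50 is the concentration that inhibits growth by half.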 Active and inactive are the calls of the source. Cut-off read from the data, not from the text of the source: active = GI50 up to about 1.1 µM and inactive = higher.

Among the test systems are T47D; SF-539; HCC 2998; SN12C; LOX IMVI; UACC-62; COLO 205; OVCAR-4; OVCAR-5; A549; HT-29; Malme-3M; ACHN; DU-145; SR; HCT-116; OVCAR-3; SNB-75; MDA-MB-435.
Common to all, as to assay: NCI tumour cell line growth inhibition, 48 h

With `COc1ccccc1-c1cc(O)c2ccc(C)nc2n1`, the GI50 with T47D, with SF-539, with HCC 2998, in the assay on SN12C, with LOX IMVI and in the assay with UACC-62 was > 100 µM (inactive) throughout. The GI50 with COLO 205 is 54.1 µM (inactive); with OVCAR-4 it was > 100 µM (inactive); with OVCAR-5, > 100 µM (inactive); in the assay with A549, > 100 µM (inactive); with HT-29, 26.6 µM (inactive); in the assay with Malme-3M it was 51.5 µM (inactive). Besides, the GI50 in the assay with ACHN and in the assay on DU-145 was > 100 µM (inactive) throughout.

Turning to `Cc1ccc(S(=O)(=O)NCCCSCCO)cc1`, the GI50 in the assay with SR is > 100 µM (inactive); in the assay on T47D, 21.7 µM (inactive); in the assay with HCC 2998, > 100 µM (inactive); in the assay on HCT-116, 27.2 µM (inactive); in the assay on SN12C, 43 µM (inactive); in the assay on LOX IMVI, 29 µM (inactive). In addition, the GI50 is 31.6 µM (inactive) in the assay on OVCAR-3; 18.3 µM (inactive) with COLO 205; 96.8 µM (inactive) with OVCAR-4; 10.5 µM (inactive) in the assay with A549; 33.6 µM (inactive) in the assay on HT-29; 33.1 µM (inactive) in the assay with SNB-75. The GI50 in the assay with ACHN is > 100 µM (inactive); in the assay on MDA-MB-435, 45.2 µM (inactive); in the assay with DU-145 it was > 100 µM (inactive).

As for `COc1cc(O)c2c(=O)c(O)c(-c3ccc(O)c(O)c3)oc2c1` [RHAMNETIN], the GI50 is 13.3 µM (inactive) in the assay with SR; 19.6 µM (inactive) in the assay on T47D; 14 µM (inactive) in the assay with HCC 2998; 14.6 µM (inactive) with HCT-116; 11.7 µM (inactive) with LOX IMVI; 7.91 µM (inactive) in the assay on UACC-62. The GI50 in the assay on OVCAR-3 was 3.9 µM (inactive); in the assay on COLO 205, 13.5 µM (inactive); in the assay on OVCAR-4, 0.403 µM (active); in the assay on OVCAR-5, 19.7 µM (inactive); in the assay on A549 it was 15 µM (inactive); in the assay on HT-29 it was 15.9 µM (inactive). Further, the GI50 in the assay with Malme-3M is 17.7 µM (inactive); with ACHN it was 5.47 µM (inactive); with MDA-MB-435, 13 µM (inactive); with DU-145, 4.13 µM (inactive).

As for `CN(C(=O)C1=CCC2(CC1)OCCO2)c1ccccc1I`, the GI50 in the assay on SR, in the assay with T47D, with HCC 2998, in the assay on HCT-116, in the assay with SN12C and in the assay on LOX IMVI was > 100 µM (inactive) throughout. In addition, the GI50 in the assay on UACC-62, in the assay with OVCAR-3, with COLO 205, in the assay with OVCAR-4, with OVCAR-5 and in the assay with A549 was > 100 µM (inactive) each time. For the same compound, the GI50 in the assay with HT-29, in the assay on SNB-75, in the assay on ACHN, in the assay with MDA-MB-435 and in the assay with DU-145 was > 100 µM (inactive) throughout.

As for `CC1CC/C(=C\c2ccc(F)cc2)C(=O)/C1=C/c1ccc(F)cc1` (configuration not stated), the GI50 with T47D was 5.46 µM (inactive); in the assay on SF-539, 3.68 µM (inactive); in the assay on HCT-116 it was 2.5 µM (inactive); in the assay with SN12C it was 3.22 µM (inactive); in the assay with LOX IMVI it was 2.77 µM (inactive); with UACC-62 it was 11.6 µM (inactive). Besides, the GI50 in the assay on OVCAR-3 is 5.7 µM (inactive); with COLO 205, 5.77 µM (inactive); in the assay with OVCAR-5 it was 4.13 µM (inactive); in the assay with HT-29, 2.92 µM (inactive); in the assay with SNB-75, 2.04 µM (inactive); in the assay with Malme-3M, 17.9 µM (inactive). The results for the GI50 with ACHN, in the assay on MDA-MB-435 and in the assay with DU-145 were 4.15 µM (inactive), 4.69 µM (inactive) and 4.07 µM (inactive), respectively.
